The source made the active and inactive calls. No cut-off for these calls is given here.
Experiments:
[1] = system: MDM; assay: Inhibition of ACAT in human MDM cells assessed as inhibition of foam cell formation by measuring acetylated LDL-induced [3H]cholesterol ester accumulation at 5 uM after 24 hrs in presence of 0.1 mM [3H]oleate; format: cell-based
[2] = Cytotoxicity against human MDM cells at 5 uM after 24 hrs; format: cell-based
[3] = molecular target: T1, Sterol O-acyltransferase 1 (Homo sapiens) (UniProt P35610); assay: Inhibition of human ACAT1 expressed in CHO cells assessed as inhibition of [3H]cholesterol ester accumulation at 5 uM in presence of 0.1 mM [3H]oleate-conjugated BSA; format: cell-based
T1 sequence (whole entry): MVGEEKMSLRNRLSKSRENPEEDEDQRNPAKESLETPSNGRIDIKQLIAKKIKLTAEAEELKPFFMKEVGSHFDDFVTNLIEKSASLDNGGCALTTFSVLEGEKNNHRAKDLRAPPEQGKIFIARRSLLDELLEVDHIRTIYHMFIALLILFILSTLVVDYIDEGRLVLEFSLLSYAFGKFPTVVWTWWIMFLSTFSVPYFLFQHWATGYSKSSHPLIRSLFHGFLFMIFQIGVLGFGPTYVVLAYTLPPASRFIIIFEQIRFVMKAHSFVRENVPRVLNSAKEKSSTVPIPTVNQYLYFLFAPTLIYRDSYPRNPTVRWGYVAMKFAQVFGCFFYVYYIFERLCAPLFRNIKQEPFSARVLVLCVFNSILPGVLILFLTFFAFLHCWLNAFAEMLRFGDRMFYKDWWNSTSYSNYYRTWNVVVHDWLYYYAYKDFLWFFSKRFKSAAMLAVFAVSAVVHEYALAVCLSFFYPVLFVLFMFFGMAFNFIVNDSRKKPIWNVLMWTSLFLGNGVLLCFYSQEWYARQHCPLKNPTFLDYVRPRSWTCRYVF

[4] = molecular target: T2, Sterol O-acyltransferase 2 (Homo sapiens) (UniProt O75908); assay: Inhibition of human ACAT2 expressed in CHO cells assessed as inhibition of [3H]cholesterol ester accumulation at 5 uM in presence of 0.1 mM [3H]oleate-conjugated BSA; format: cell-based
T2 sequence (whole entry): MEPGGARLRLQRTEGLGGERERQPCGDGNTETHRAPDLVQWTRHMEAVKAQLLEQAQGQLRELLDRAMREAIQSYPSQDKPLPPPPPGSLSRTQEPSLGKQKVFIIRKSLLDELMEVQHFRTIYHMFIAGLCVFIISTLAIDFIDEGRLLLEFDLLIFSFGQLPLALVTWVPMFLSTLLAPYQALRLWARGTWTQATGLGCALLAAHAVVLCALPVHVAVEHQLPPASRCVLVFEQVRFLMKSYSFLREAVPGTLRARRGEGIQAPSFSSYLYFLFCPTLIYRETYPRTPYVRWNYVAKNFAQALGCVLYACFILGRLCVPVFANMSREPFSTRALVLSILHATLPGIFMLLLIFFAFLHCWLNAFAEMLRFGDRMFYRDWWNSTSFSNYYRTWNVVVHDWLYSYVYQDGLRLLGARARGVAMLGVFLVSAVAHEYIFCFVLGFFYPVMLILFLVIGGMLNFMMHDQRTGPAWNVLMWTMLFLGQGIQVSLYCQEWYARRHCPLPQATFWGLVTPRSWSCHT

[5] = molecular target: T1, Sterol O-acyltransferase 1 (Homo sapiens); assay: Inhibition of human ACAT1 expressed in CHO cells at 5 uM using [14C]oleoyl-CoA as substrate; format: cell-based
[6] = molecular target: T2, Sterol O-acyltransferase 2 (Homo sapiens); assay: Inhibition of human ACAT2 expressed in CHO cells at 5 uM using [14C]oleoyl-CoA as substrate; format: cell-based
[7] = system: CHO; assay: Cytotoxicity against CHO cells at 5 uM; format: cell-based, Cricetulus griseus; settings: chinese hamster
[8] = system: MDM; assay: Inhibition of human ACAT in MDM cells microsomal fraction assessed as inhibition of cholesteryl [14C]oleate formation at 5 uM for 15 mins in presence of [14C]oleoyl-CoA; format: cell-based
[9] = system: MDM; assay: Effect on ACAT1 expression in human MDM cells at 5 uM for 24 hrs by western blot analysis; format: functional, cell-based
[10] = system: MDM; assay: Effect on ACAT2 expression in human MDM cells at 5 uM for 24 hrs by western blot analysis; format: functional, cell-based
[11] = system: MDM; assay: Effect on SR-A expression in human MDM cells at 5 uM for 24 hrs by western blot analysis; format: functional, cell-based
[12] = system: MDM; assay: Effect on SR-BI expression in human MDM cells at 5 uM for 24 hrs by western blot analysis; format: functional, cell-based
[13] = system: MDM; assay: Effect on CD36 expression in human MDM cells at 5 uM for 24 hrs by western blot analysis; format: functional, cell-based
[14] = system: MDM; assay: Effect on triacylglycerol accumulation in human MDM cells at 5 uM after 24 hrs in presence of 50 ug/ml acetylated LDL and 0.1 mM [3H]oleate; format: functional, cell-based
[15] = system: MDM; assay: Effect on phospholipid accumulation in human MDM cells at 5 uM after 24 hrs in presence of 50 ug/ml acetylated LDL and 0.1 mM [3H]oleate; format: functional, cell-based

Row | inhibition [3] | inhibition [4] | inhibition [5] | inhibition [6] | SMILES | inhibition [1] [%] | Activity [2] | Activity [7] | inhibition [8] | Activity [9] | Activity [10] | Activity [11] | Activity [12] | Activity [13] | Activity [14] | Activity [15]
1 | inactive | inactive | inactive | inactive | O=C1NCCc2ccc(O)c(c2)Oc2ccc(cc2Br)CCNC(=O)/C(=N/O)Cc2cc(Br)c(O)c(c2)Oc2c(Br)cc(cc2Br)C/C1=N\O | 80 | Non-toxic |  |  |  |  |  |  |  |  | 
2 | inactive | inactive | inactive | inactive | O=C1NCCc2cc(Br)c(O)c(c2)Oc2c(Br)cc(cc2Br)[C@H](O)CNC(=O)/C(=N/O)Cc2cc(Br)c(O)c(c2)Oc2ccc(cc2Br)C/C1=N\O [BASTADIN 12] | 80 | Non-toxic |  |  |  |  |  |  |  |  | 
3 | 57% | 61% | 61% | 58% | O=C1NCCc2ccc(O)c(c2)Oc2c(Br)cc(cc2Br)CCNC(=O)/C(=N/O)Cc2cc(Br)c(O)c(c2)Oc2c(Br)cc(cc2Br)C/C1=N\O [BASTADIN 16] | 88 | Non-toxic | Non-toxic |  |  |  |  |  |  | inactive | inactive

The remaining lines, values behind:

Row | SMILES | inhibition [3] | inhibition [4] | inhibition [5] | inhibition [6] | inhibition [1] [%] | Activity [2] | Activity [7] | inhibition [8] | Activity [9] | Activity [10] | Activity [11] | Activity [12] | Activity [13] | Activity [14] | Activity [15]
4 | O=C1N/C=C/c2ccc(c(Br)c2)Oc2cc(cc(Br)c2O)CCNC(=O)/C(=N/O)Cc2cc(Br)c(c(Br)c2)Oc2cc(cc(Br)c2O)C/C1=N\O [BASTADIN 4] | inactive | inactive |  |  | 36 | Non-toxic |  |  |  |  |  |  |  |  | 
5 | O=C1NCCc2cc(Br)c(O)c(c2)Oc2ccc(cc2Br)CCNC(=O)/C(=N\O)Cc2cc(Br)c(O)c(c2)Oc2c(Br)cc(cc2Br)C/C1=N/O [BASTADIN 5] | inactive | inactive |  |  | 58 | Non-toxic |  |  |  |  |  |  |  |  | 
6 | O=C1NCCc2cc(Br)c(O)c(c2)Oc2c(Br)cc(cc2Br)CCNC(=O)/C(=N/O)Cc2cc(Br)c(O)c(c2)Oc2c(Br)cc(cc2Br)C/C1=N\O [BASTADIN 6] | 86% | 87% | 82% | 89% | 96 | Non-toxic | Non-toxic | Active | inactive | inactive | inactive | inactive | inactive | inactive | inactive
7 | O=C1N/C=C/c2ccc(c(Br)c2)Oc2cc(cc(Br)c2O)CCNC(=O)/C(=N/O)Cc2ccc(c(Br)c2)Oc2cc(cc(Br)c2O)C/C1=N\O [BASTADIN 7] | inactive | inactive |  |  | 39 | Non-toxic |  |  |  |  |  |  |  |  | 
8 | O=C(NCCc1ccc(O)c(Br)c1)/C(Cc1ccc(O)c(Br)c1)=N\O [HEMIBASTADIN 1] | inactive | inactive |  |  | 5 | Non-toxic |  |  |  |  |  |  |  |  | 

Reference: ChEMBL document CHEMBL3632472, “Bastadins, brominated-tyrosine derivatives, suppress accumulation of cholesterol ester in macrophages” (Bioorg Med Chem Lett, 2015)
